Data on one molecule can be found in US20250027041A1, “COMPOSITION FOR INDUCING TRANSDIFFERENTIATION AND STEM CELLS TREATED THEREWITH” (YJ CERAPEUTICS INC., priority 2021, published 2025).

Molecules are shown by their SMILES.

One assay has as its target CtBP1 (Homo sapiens, UniProt Q13363). Briefly: DARTS assay, CtBP1. Format: binding. Further details: expressed in transfected cells; host or cells: human UCB-MSC (Kang Stem Cell), lysate. As to the method: To identify proteins binding to compounds of the present invention, YJ101 (Chemical Formula 1), YJ102 (Chemical Formula 2), and YJ103 (Chemical Formula 3), in human umbilical cord blood-derived mesenchymal stem cells (UCB-MSCs), DART assay was performed. Specifically, UCB-MSCs (Kang Stem Cell, Passage #6) were dispensed into a 100 mm culture dish and incubated in a KSB-3 medium (Cat. K3901, Kang Stem Cell) containing 10% FBS (Cat. 16000044), and then collected and washed with PBS. Thereafter, the cells were added with an IP50 lysis buffer [50 mM Tris-HCl (pH 7.4), 150 mM NaCl, 2 mM MgCl2, and 0.1% NP40], sonicated, and centrifuged at 13,000×g for 10 minutes at 4° C. to obtain the supernatant. The supernatant was added with 1/10 volume of 10×TNC buffer [500 mM Tris-HCl (pH 8.0), 500 mM NaCl, and 100 mM CaCl2)], and protein concentration was measured using a Bradford method. Thereafter, 9 μl of a cell lysate and 1 μl of YJ101 (20 or M), YJ102 (20 or 30 μM), or YJ103 (20 or 40 μM) were mixed in a microcentrifuge tube and incubated at room temperature for 1 hour. A control group was treated with 1 μl of DMSO. After incubation, 1 μl (1 mg/ml) of Pronase (Cat. 10 165 921 001, Roche) diluted to 1 mg/ml using a 1×TNC buffer was added to the microcentrifuge tube and incubated at 37° C. for 15 minutes. After incubation, ⅕ volume of a 5×SDS-PAGE loading buffer was added, heated at 100° C. for 5 minutes, and then SDS-PAGE and Coomassie blue staining were performed. In addition, UCB-MSCs were dispensed at 4×10^5 cells/ml in a 60 mm culture dish, and after 24 hours, 4 μg of FLAG-CtBP1 or FLAG-CtBP2 DNA was transfected using 4 μl of jetPRIME. After 48 hours, the cells were collected, and proteins were extracted and quantified using the same method as above. DARTS assay was performed with the cell lysate of CtBP1 and Y102 labeled with FLAG, and Western blot assay was performed with a flag antibody (Cat. F3165, Sigma).

Another assay has as its system UCB-MSCs. Briefly: Tuj1 immunochemical assay, direct conversion of UCB-MSCs into ciNSC5. Conditions: 30 μM, 5 days. Format: cell-based, human. As to the method: Immunochemical assay was performed to confirm whether UCB-MSCs were transdifferentiated into ciNSC5, Tuj1-positive neural progenitor cells, by the compounds of the present invention, YJ101, YJ102, and YJ103. Specifically, UCB-MSCs were dispensed at 2.1×10^4 cells/well in a 12-well plate containing an 18 mm cover glass (a DMSO control group was dispensed at 3.5×10^3 cells/well). […] The culture medium was removed, washed with PBS, and then fixed with 4% paraformaldehyde at room temperature for 10 minutes. After washed three times with PBS, the cells were permeabilized with PBS-T containing 0.5% Triton X-100 for 10 minutes, washed with PBS-T three times for 10 minutes each, and then blocked with a blocking solution (PBS-T containing 5% BSA and 5% goat serum) for 1 hour. Thereafter, the cells were treated with anti-Tuj1 antibody (Cat. 801201, BioLegend) diluted 1/5000 in a blocking solution and incubated at 4° C. overnight. The next day, the cells were washed 10 times for 10 minutes each with PBS-T, and then treated with anti-mouse IgG-FITC diluted 1/500 in a blocking solution, and incubated for 1 hour in dark conditions. Next, the cells were washed 10 times for 10 minutes each with PBS-T, mounted with a mounting solution containing DAPI, and then observed with a confocal microscope.

The target in the next assay is T1, CtBP1-CtBP2 (Homo sapiens, UniProt P56545+Q13363).
T1 construct: expressed in transfected cells; host or cells: human UCB-MSC
The assay can be described thus: Immunoprecipitation, CtBP1-CtBP2 heteromerization in UCB-MSCs. Conditions: YJ102 20 μM; FLAG-CtBP2 + HA-CtBP1. Format: cell-based. The protocol:
To determine the effect of YJ102 on the regulation of oligomerization of C-terminal Binding Proteins (CtBPs) in human UCB-MSCs, immunoprecipitation analysis was performed. Specifically, UCB-MSCs were dispensed at 4×10^5 cells/ml in a 60 mm culture dish, and the next day, FLAG-CtBP1, HA-CtBP1, FLAG-CtBP2, and HA-CtBP1 were transfected into cells using 4 μl jetPRIME. Thereafter, the cells were treated with YJ102 (stock 30 mM in DMSO) and MTOB (stock 300 mM in DMSO) at 20 μM and 300 μM, respectively (Table 1). After 48 hours of transfection, proteins were extracted in the same manner as in Example 1-1. Protein G agarose slurry was washed with PBS and blocked with 1 ml of 1% BSA, washed with PBS, and added with 1 μg of anti-HA antibody diluted with 1.5 ml of PBS and incubated at 4° C. for 2 hours. Thereafter, the cells were centrifuged at 3,000×g for 2 minutes to remove the supernatant, washed with an IP150 buffer two times, added with 1 μg of the protein extracted above, and incubated at 4° C. overnight. After incubation, the cells were centrifuged at 3,000×g for 2 minutes to remove the supernatant, washed with PBS three times, added with 50 μl of 1 mg/ml HA peptide diluted with PBS, and incubated at room temperature for 10 minutes. […]

As to `CCc1ccc(N(C(=O)COC)c2nc3cc(Cl)ccc3o2)cc1` [YJ102], the “overexpressed CtBP1 (flag-CtBP1) protection from degradation by pronase (DARTS)” value on CtBP1 (FLAG-CtBP1 transfected UCB-MSC lysate, YJ101 (20 or M), YJ102 (20 or 30 μM), YJ103 (20 or 40 μM)) is “protected”. Besides, the “CtBP1 protection from degradation by pronase (DARTS)” value at CtBP1 (endogenous CtBP1, UCB-MSC lysate, YJ102 20 or 30 μM) is “protected”. Further, the “binding to CtBP1” value on CtBP1 (human UCB-MSC) is recorded as “bound to CtBP1”. The “direct conversion from UCB-MSCs to ciNSC5” value with UCB-MSCs is “induced direct conversion”. The “expression of Tuj1” value with UCB-MSCs (UCB-MSC) is reported as “increased”. Moreover, the CtBP1-CtBP2 heteromerization entry at CtBP1-CtBP2 is reported as “had no effect”.
